Like-named read-outs stand apart in the source and are kept apart here.
What was measured:
[1] = system: MERS-CoV (strain EMC/2012); experiment: microbe, parasite or virus in culture; assay type: cell-based; conditions: for EC50: Middle East respiratory syndrome-related coronavirus, Huh-7, read-out: EC50: Effective concentration showing 50% inhibition of virus-induced CPE
[2] = system: MERS-CoV (strain EMC/2012); experiment: microbe, parasite or virus in culture; assay type: cell-based; conditions: Middle East respiratory syndrome-related coronavirus, Vero, read-out: EC50: Effective concentration showing 50% inhibition of virus-induced CPE
[3] = system: Huh7 cells; conditions: human
[4] = system: Vero cells; conditions: African green monkey
[5] = system: SARS-CoV (strain Frankfurt-1)
[6] = system: VeroE6 cells; conditions: African green monkey
[7] = system: SARS-CoV or MERS-CoV; conditions: cited from earlier work
[8] = system: HIV-1 and HSV-2; conditions: when McGuigan's ProTide technology was employed, cited from earlier work
[9] = system: SARS-CoV (strain Frankfurt-1); experiment: microbe, parasite or virus in culture; conditions: Severe acute respiratory syndrome coronavirus
[10] = system: HCoV-NL63; experiment: NL63-CoV antiviral assay (CPE scored microscopically)
[11] = Cytotoxicity in Vero118 cells (NL63 assay, cell viability scored microscopically); conditions: African green monkey, Vero118 cells, CC50: Cytotoxic concentration showing 50% inhibition of cell survival, Vero118 (HCoV-NL63 assay)
[12] = in vitro; conditions: human
[13] = system: Vero118 cells; experiment: Cytotoxicity in Vero118 cells (NL63 assay, cell viability scored microscopically); conditions: read-out: CC50: Cytotoxic concentration showing 50% inhibition of cell survival; Vero118 (HCoV-NL63 assay)
[14] = system: coronavirus; conditions: coronavirus replication in vitro; cited from earlier work
[15] = system: other viruses; conditions: cited from earlier work
[16] = Vero C1008, read-out: EC50: Effective concentration showing 50% inhibition of virus-induced CPE
[17] = Human coronavirus NL63, read-out: EC50: Effective concentration showing 50% inhibition of virus-induced CPE, HCoV-NL63 in Vero118

Compound | block the replication of MERS-CoV [1] | EC50 [1] [µM] | EC50 [2] [µM] | activity against SARS-CoV or MERS-CoV in vitro [7] | EC50 [9, 16] [µM] | EC50 [10, 17] [µM] | CC50 at 5 days [11] [µM] | also measured
Nc1nc2c(ncn2COCCO)c(=O)[nH]1 [Acyclovir, acyclovir, reference compound] | had no effect | > 1000 | > 1000 | none of these well-known antiviral drugs exhibited any activity | > 1000 | > 100 | > 100 | CC50 [3]: > 1000 µM; CC50 [4]: > 1000 µM; block the replication of SARS-CoV [5]: had no effect; CC50 [6]: > 1000 µM; suppression of replication of both HIV-1 and HSV-2 ([8]; CD4+ T cells): 3 to 12 µmol/L; suppression of replication of both HIV-1 and HSV-2 ([8]; lymphoid and cervicovaginal human tissues): submicromolar range
OCCOCn1cnc(-c2cnc(O)nc2O)c1 [Compound 1, 5-(1-((2-hydroxyethoxy)methyl)-1H-imidazol-4-yl)pyrimidine-2,4-diol] | – | – | – | – | – | 92 ± 68 | > 200 | –
COc1nc(N)ncc1-c1cn(COCCO)cn1 [Compound 2, 2-((4-(2-amino-4-methoxypyrimidin-5-yl)-1H-imidazol-1-yl)methoxy)ethan-1-ol] | can block the replication of MERS-CoV | 13.5 | 10.1 ± 1.2 | – | 28.1 ± 0.2 | < 10 | > 100 | CC50 [12]: 54 ± 1.7 µM; selective antiviral activity (CC50>10×) ([10]; HCoV-NL63 in Vero118, CC50 relative to EC50): > 10 ×; EC50 ([10]; read-out: EC50: Effective concentration showing 50% inhibition of virus-induced CPE, HCoV-NL63 in Vero118): 8.8 ± 1.5 µM; CC50 [13]: 120 ± 37 µM
Nc1ncc(-c2cn(COCCO)cn2)c(O)n1 [Compound 3, 2-amino-5-(1-((2-hydroxyethoxy)methyl)-1H-imidazol-4-yl)pyrimidin-4(3H)-one] | – | – | – | – | – | > 200 | > 200 | –
COc1nc(N)ncc1-c1cn(COCCOC(C)=O)cn1 [Compound 19, 2-((4-(2-amino-4-methoxypyrimidin-5-yl)-1H-imidazol-1-yl)methoxy)ethyl acetate] | can block the replication | 5.3 ± 0.7 | 3.4 ± 0.3 | – | 11.9 ± 0.2 | – | – | CC50 as multiple of the EC50 [5]: ~3 times the EC50; block the replication of SARS-CoV [5]: can block the replication; CC50 [12]: 23.4 ± 0.4 µM; EC50 ([9]; Vero C1008): < 12 µM
NC(=O)c1ncn([C@@H]2O[C@H](CO)[C@@H](O)[C@H]2O)n1 [Ribavirin, ribavirin] | – | – | – | – | – | – | – | inhibitory concentration [14]: 500 to 5000 µg/mL; inhibitory concentration needed to inhibit other viruses [15]: 50 to 100 µg/mL
Nc1nc(O)c2ncn(COC(CO)CO)c2n1 [ganciclovir] | – | – | – | none of these well-known antiviral drugs exhibited any activity | – | – | – | –
Cc1cn([C@H]2C[C@H](N=[N+]=[N-])[C@@H](CO)O2)c(=O)[nH]c1=O [zidovudine] | – | – | – | none of these well-known antiviral drugs exhibited any activity | – | – | – | –

From US10058516B2, “Design, synthesis and methods of use of acyclic fleximer nucleoside analogues having anti-coronavirus activity” (priority 2015, dated 2018)
